Reference: PMC3399817 (PLoS ONE, 2012)

Tests used:
Assay in all cases: KINOMEscan
Assay type in all cases: binding
ACVR1B = biological target: T1, ACVR1B (Homo sapiens, UniProt P36896); details: 1 uM
T1 construct: purchased Ambit KINOMEscan (DiscoverX)
Procedure: (§1) First, we used Ambit's KINOMEscan™ technology to identify those kinases that are inhibited for substrate binding by the compounds, all assayed at 1 μM. Second, we used Invitrogen's SelectScreen® Biochemical Kinase Profiling Service to determine the in vitro IC50s for the compounds against specific kinases.

ACVR2A = biological target: T2, ACVR2A (Homo sapiens, UniProt P27037); details: 1 uM
T2 construct: purchased Ambit KINOMEscan (DiscoverX)
Procedure: as §1

ACVRL1 = biological target: T3, ACVRL1 (Homo sapiens, UniProt P37023); details: ACVRL1, 1 uM
T3 construct: purchased Ambit KINOMEscan (DiscoverX)
Procedure: as §1

ADCK3 = biological target: T4, ADCK3 (Homo sapiens, UniProt Q8NI60); details: ADCK3, 1 uM
T4 construct: purchased Ambit KINOMEscan (DiscoverX)
Procedure: as §1

ARK5 = biological target: T5, ARK5 (Homo sapiens, UniProt O60285); details: ARK5, 1 uM
T5 construct: purchased Ambit KINOMEscan (DiscoverX)
Procedure: as §1

BIKE = biological target: T6, BIKE (Homo sapiens, UniProt Q9NSY1); details: 1 uM
T6 construct: purchased Ambit KINOMEscan (DiscoverX)
Procedure: as §1

CAMK4 = biological target: T7, CAMK4 (Homo sapiens, UniProt Q16566); details: CAMK4, 1 uM
T7 construct: purchased Ambit KINOMEscan (DiscoverX)
T7 sequence (Q16566 whole entry): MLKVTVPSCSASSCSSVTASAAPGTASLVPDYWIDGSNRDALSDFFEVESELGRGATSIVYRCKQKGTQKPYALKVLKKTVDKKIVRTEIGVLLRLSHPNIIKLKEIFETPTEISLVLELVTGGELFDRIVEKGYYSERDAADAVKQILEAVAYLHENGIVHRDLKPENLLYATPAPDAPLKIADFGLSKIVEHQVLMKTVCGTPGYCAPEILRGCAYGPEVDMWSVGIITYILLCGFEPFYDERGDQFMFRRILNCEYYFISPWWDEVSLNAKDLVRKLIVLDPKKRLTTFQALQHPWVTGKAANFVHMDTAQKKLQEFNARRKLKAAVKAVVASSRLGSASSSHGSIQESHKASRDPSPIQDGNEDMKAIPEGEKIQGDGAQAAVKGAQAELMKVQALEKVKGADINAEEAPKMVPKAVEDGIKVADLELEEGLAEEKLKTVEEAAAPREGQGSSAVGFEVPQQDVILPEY
Procedure: as §1

CDK8 = biological target: T8, CDK8 (Homo sapiens, UniProt P49336); details: CDK8, 1 uM
T8 construct: purchased Ambit KINOMEscan (DiscoverX)
Procedure: as §1

CDK9 = biological target: T9, CDK9 (Homo sapiens, UniProt P50750); details: for % binding compared to no inhibitor control: CDK9, 1 uM
T9 construct: purchased Ambit KINOMEscan (DiscoverX)
T9 sequence (P50750 whole entry): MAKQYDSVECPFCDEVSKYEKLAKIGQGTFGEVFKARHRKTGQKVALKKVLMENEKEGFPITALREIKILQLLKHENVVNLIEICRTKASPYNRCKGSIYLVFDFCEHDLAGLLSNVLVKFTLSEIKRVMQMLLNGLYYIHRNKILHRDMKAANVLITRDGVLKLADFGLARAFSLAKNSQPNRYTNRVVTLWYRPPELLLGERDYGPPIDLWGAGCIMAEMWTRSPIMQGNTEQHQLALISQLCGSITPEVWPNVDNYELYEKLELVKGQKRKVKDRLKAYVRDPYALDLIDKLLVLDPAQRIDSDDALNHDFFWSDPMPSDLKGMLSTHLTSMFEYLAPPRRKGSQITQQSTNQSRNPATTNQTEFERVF
Procedure: as §1

CHEK1 = biological target: T10, CHEK1 (Homo sapiens, UniProt O14757); details: CHEK1, 1 uM
T10 construct: purchased Ambit KINOMEscan (DiscoverX)
Procedure: as §1

CSNK2A1 = biological target: T11, CSNK2A1 (Homo sapiens, UniProt P68400); details: CSNK2A1, 1 uM
T11 construct: purchased Ambit KINOMEscan (DiscoverX)
T11 sequence (P68400 whole entry): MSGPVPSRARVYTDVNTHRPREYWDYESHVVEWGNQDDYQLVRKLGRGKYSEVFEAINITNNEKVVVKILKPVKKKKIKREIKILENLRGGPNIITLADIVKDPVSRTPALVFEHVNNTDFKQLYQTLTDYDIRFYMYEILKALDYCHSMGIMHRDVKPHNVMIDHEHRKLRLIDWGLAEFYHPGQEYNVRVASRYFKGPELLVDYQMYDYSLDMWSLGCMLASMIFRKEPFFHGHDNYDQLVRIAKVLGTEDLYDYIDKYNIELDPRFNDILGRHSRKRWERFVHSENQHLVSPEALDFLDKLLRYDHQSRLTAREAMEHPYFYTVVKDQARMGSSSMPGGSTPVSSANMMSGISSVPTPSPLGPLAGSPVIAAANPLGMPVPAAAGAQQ
Procedure: as §1

CSNK2A2 = biological target: T12, CSNK2A2 (Homo sapiens, UniProt P19784); details: CSNK2A2, 1 uM
T12 construct: purchased Ambit KINOMEscan (DiscoverX)
Procedure: as §1

DMPK = biological target: T13, DMPK (Homo sapiens, UniProt Q09013); details: 1 uM
T13 construct: purchased Ambit KINOMEscan (DiscoverX)
T13 sequence (Q09013 whole entry): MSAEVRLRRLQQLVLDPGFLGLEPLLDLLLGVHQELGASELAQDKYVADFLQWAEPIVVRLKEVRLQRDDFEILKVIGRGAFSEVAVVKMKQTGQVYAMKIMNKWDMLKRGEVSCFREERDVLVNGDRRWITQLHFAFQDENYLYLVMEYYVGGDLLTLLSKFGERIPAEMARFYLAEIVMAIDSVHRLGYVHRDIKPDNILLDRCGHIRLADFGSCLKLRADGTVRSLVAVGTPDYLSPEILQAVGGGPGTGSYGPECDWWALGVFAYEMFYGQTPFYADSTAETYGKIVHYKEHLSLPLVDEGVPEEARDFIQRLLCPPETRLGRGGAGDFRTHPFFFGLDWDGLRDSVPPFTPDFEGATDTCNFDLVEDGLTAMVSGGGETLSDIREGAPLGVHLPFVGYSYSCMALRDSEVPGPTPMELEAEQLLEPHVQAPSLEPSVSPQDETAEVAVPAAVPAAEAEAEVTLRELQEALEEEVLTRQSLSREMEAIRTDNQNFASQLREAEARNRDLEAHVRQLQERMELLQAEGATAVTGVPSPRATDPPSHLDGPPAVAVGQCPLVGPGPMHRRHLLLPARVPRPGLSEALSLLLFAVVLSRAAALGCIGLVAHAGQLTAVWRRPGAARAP
Procedure: as §1

DYRK1A = biological target: T14, DYRK1A (Homo sapiens, UniProt Q13627); details: 1 uM
T14 construct: purchased Ambit KINOMEscan (DiscoverX)
Procedure: as §1

EGFR(E746-A750del) = biological target: T15, EGFR(E746-A750del) (Homo sapiens, UniProt P00533, DEL746-750); details: 1 uM
T15 construct: purchased Ambit KINOMEscan (DiscoverX)
T15 sequence (P00533 with tags, fused parts or gaps DEL746-750 limits assumed): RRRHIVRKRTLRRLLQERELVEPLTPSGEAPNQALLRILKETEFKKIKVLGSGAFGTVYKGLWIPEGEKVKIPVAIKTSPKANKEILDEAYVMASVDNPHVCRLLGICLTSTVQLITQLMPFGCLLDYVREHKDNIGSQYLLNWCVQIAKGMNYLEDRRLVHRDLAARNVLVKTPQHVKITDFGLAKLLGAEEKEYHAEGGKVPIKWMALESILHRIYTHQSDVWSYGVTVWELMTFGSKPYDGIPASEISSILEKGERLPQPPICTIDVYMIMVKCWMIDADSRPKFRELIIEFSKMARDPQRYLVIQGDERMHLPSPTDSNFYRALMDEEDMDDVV
Procedure: as §1

EPHA1 = biological target: T16, EPHA1 (Homo sapiens, UniProt P21709); details: EPHA1, 1 uM
T16 construct: purchased Ambit KINOMEscan (DiscoverX)
Procedure: as §1

EPHB4 = biological target: T17, EPHB4 (Homo sapiens, UniProt P54760); details: EPHB4, 1 uM
T17 construct: purchased Ambit KINOMEscan (DiscoverX)
Procedure: as §1

ERK1 = biological target: T18, ERK1 (Homo sapiens, UniProt P27361); details: ERK1, 1 uM
T18 construct: purchased Ambit KINOMEscan (DiscoverX)
Procedure: as §1

FAK = biological target: T19, FAK (Homo sapiens, UniProt Q05397); details: 1 uM
T19 construct: purchased Ambit KINOMEscan (DiscoverX)
Procedure: as §1

FGR = biological target: T20, FGR (Homo sapiens, UniProt P09769); details: 1 uM
T20 construct: purchased Ambit KINOMEscan (DiscoverX)
Procedure: as §1

IRAK1 = biological target: T21, IRAK1 (Homo sapiens, UniProt P51617); details: IRAK1, 1 uM
T21 construct: purchased Ambit KINOMEscan (DiscoverX)
Procedure: as §1

IRAK3 = biological target: T22, IRAK3 (Homo sapiens, UniProt Q9Y616); details: IRAK3, 1 uM
T22 construct: purchased Ambit KINOMEscan (DiscoverX)
Procedure: as §1

[1] = biological target: T23, JAK1(JH1domain-catalytic) (Homo sapiens, UniProt P23458); details: 1 uM
T23 construct: JAK1(JH1domain-catalytic); purchased Ambit KINOMEscan (DiscoverX)
Procedure: as §1

[2] = biological target: T24, JAK3(JH1domain-catalytic) (Homo sapiens, UniProt P52333); details: 1 uM
T24 construct: JAK3(JH1domain-catalytic); purchased Ambit KINOMEscan (DiscoverX)
T24 sequence (P52333 822-1124 limits assumed): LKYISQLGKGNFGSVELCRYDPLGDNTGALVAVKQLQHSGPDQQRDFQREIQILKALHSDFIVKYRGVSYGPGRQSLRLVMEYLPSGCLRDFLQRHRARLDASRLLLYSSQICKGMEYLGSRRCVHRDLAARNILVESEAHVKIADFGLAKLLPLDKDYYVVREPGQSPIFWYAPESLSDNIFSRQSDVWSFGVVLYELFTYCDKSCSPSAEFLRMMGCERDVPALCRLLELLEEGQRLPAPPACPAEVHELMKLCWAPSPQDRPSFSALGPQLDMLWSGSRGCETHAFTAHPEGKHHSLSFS
Procedure: as §1

MAP3K4 = biological target: T25, MAP3K4 (Homo sapiens, UniProt Q9Y6R4); details: MAP3K4, 1 uM
T25 construct: purchased Ambit KINOMEscan (DiscoverX)
Procedure: as §1

MEK3 = biological target: T26, MEK3 (Homo sapiens, UniProt P46734); details: MEK3, 1 uM
T26 construct: purchased Ambit KINOMEscan (DiscoverX)
T26 sequence (P46734 whole entry): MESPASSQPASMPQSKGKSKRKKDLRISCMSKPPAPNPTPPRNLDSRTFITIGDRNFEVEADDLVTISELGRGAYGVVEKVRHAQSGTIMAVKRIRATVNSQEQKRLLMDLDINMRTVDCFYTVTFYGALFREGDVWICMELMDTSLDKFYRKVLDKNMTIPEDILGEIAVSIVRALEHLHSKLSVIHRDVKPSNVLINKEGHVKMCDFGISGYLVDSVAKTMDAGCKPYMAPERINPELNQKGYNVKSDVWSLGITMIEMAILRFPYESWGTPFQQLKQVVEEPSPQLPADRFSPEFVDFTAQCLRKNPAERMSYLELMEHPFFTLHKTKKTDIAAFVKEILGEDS
Procedure: as §1

MERTK = biological target: T27, MERTK (Homo sapiens, UniProt Q12866); details: 1 uM
T27 construct: purchased Ambit KINOMEscan (DiscoverX)
Procedure: as §1

PIK3CA(E545A) = biological target: T28, PIK3CA(E545A) (Homo sapiens, UniProt P42336, E545A); details: 1 uM
T28 construct: purchased Ambit KINOMEscan (DiscoverX)
Procedure: as §1

PIK3CA(Q546K) = biological target: T29, PIK3CA(Q546K) (Homo sapiens, UniProt P42336, Q546K); details: 1 uM
T29 construct: purchased Ambit KINOMEscan (DiscoverX)
Procedure: as §1

PRKD3 = biological target: T30, PRKD3 (Homo sapiens, UniProt O94806); details: PRKD3, 1 uM
T30 construct: purchased Ambit KINOMEscan (DiscoverX)
T30 sequence (O94806 whole entry): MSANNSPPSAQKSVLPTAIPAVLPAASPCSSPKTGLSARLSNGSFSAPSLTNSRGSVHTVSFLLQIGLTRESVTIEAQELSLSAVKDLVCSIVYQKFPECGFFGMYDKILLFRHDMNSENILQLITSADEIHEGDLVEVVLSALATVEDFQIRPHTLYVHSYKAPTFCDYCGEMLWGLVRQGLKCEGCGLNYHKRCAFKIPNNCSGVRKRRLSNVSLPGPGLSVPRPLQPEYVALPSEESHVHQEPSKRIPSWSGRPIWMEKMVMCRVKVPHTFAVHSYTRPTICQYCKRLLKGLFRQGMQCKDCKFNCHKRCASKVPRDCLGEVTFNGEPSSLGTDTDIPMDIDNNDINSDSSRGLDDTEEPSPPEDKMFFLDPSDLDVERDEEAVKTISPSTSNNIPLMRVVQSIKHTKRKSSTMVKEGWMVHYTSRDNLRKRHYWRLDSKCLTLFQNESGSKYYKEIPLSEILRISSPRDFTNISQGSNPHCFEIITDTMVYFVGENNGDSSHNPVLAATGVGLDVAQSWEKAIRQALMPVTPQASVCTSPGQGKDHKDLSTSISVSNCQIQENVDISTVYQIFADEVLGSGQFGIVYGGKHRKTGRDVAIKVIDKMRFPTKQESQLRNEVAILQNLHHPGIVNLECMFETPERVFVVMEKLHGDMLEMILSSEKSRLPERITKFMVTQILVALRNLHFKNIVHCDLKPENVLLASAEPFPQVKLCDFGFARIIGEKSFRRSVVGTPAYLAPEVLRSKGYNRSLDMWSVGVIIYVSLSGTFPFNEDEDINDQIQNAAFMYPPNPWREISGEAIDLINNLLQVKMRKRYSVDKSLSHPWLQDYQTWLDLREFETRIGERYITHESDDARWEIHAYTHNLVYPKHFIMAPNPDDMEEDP
Procedure: as §1

RAF1 = biological target: T31, RAF1 (Homo sapiens, UniProt P04049); details: RAF1, 1 uM
T31 construct: purchased Ambit KINOMEscan (DiscoverX)
Procedure: as §1

RIOK1 = biological target: T32, RIOK1 (Homo sapiens, UniProt Q9BRS2); details: RIOK1, 1 uM
T32 construct: purchased Ambit KINOMEscan (DiscoverX)
Procedure: as §1

SNARK = biological target: T33, SNARK (Homo sapiens, UniProt Q9H093); details: 1 uM
T33 construct: purchased Ambit KINOMEscan (DiscoverX)
T33 sequence (Q9H093 whole entry): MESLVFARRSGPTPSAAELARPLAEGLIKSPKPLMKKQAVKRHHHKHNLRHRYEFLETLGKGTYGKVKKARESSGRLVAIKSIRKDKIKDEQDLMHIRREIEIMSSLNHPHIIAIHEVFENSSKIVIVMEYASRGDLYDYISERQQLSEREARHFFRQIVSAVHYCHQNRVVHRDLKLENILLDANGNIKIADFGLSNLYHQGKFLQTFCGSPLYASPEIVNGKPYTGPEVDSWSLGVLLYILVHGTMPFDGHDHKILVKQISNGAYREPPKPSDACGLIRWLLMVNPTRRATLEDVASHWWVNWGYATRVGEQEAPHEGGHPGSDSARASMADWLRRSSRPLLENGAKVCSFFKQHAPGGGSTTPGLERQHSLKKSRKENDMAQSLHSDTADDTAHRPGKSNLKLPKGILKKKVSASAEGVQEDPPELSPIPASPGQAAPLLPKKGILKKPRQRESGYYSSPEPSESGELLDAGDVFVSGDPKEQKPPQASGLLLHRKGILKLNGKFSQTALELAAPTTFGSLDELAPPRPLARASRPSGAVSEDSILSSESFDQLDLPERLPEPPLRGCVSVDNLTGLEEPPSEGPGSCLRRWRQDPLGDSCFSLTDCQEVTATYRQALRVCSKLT
Procedure: as §1

STK39 = biological target: T34, STK39 (Homo sapiens, UniProt Q9UEW8); details: STK39, 1 uM
T34 construct: purchased Ambit KINOMEscan (DiscoverX)
Procedure: as §1

TGFBR1 = biological target: T35, TGFBR1 (Homo sapiens, UniProt P36897); details: TGFBR1, 1 uM
T35 construct: purchased Ambit KINOMEscan (DiscoverX)
Procedure: as §1

[3] = biological target: T36, TYK2(JH1domain-catalytic) (Homo sapiens, UniProt P29597); details: 1 uM
T36 construct: TYK2(JH1domain-catalytic); purchased Ambit KINOMEscan (DiscoverX)
Procedure: as §1

ULK2 = biological target: T37, ULK2 (Homo sapiens, UniProt Q8IYT8); details: ULK2, 1 uM
T37 construct: purchased Ambit KINOMEscan (DiscoverX)
Procedure: as §1

ULK3 = biological target: T38, ULK3 (Homo sapiens, UniProt Q6PHR2); details: ULK3, 1 uM
T38 construct: purchased Ambit KINOMEscan (DiscoverX)
Procedure: as §1

T1 sequence (P36896 24-505): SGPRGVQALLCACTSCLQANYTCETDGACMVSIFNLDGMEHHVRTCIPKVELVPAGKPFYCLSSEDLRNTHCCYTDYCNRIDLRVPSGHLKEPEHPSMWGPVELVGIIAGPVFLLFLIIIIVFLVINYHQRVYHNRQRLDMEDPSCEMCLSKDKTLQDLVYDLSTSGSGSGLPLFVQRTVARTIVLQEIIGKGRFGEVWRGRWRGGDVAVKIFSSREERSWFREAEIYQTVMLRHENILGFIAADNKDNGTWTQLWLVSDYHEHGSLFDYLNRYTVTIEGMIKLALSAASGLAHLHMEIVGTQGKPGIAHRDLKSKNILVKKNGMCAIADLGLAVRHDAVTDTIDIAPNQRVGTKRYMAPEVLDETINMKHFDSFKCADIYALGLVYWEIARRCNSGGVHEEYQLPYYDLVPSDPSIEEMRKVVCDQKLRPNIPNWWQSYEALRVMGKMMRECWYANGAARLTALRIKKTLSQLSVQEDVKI

| SMILES | % binding compared to no inhibitor control (ACVR1B) | % binding compared to no inhibitor control (ACVR2A) | % binding compared to no inhibitor control (ACVRL1) | % binding compared to no inhibitor control (ADCK3) | % binding compared to no inhibitor control (ARK5) | % binding compared to no inhibitor control (BIKE) | % binding compared to no inhibitor control (CAMK4) | % binding compared to no inhibitor control (CDK8) | % binding compared to no inhibitor control (CDK9) | % binding compared to no inhibitor control (CHEK1) | % binding compared to no inhibitor control (CSNK2A1) | % binding compared to no inhibitor control (CSNK2A2) | % binding compared to no inhibitor control (DMPK) | % binding compared to no inhibitor control (DYRK1A) | % binding compared to no inhibitor control (EGFR(E746-A750del)) | % binding compared to no inhibitor control (EPHA1) | % binding compared to no inhibitor control (EPHB4) | % binding compared to no inhibitor control (ERK1) | % binding compared to no inhibitor control (FAK) | % binding compared to no inhibitor control (FGR) | other results |
| --- | --- | --- | --- | --- | --- | --- | --- | --- | --- | --- | --- | --- | --- | --- | --- | --- | --- | --- | --- | --- | --- |
| COc1ccc(-c2cc3nccn3c(Nc3ncccc3C(N)=O)n2)cc1OC.Cl.Cl [BAY61-3606, 2-[7-(3,4-dimethoxyphenyl)-imidazo [1,2-c]pyrimidin-5-ylamino] nicotinamide dihydrochloride, reference compound] | 100% | 100% | 100% | 99% | 62% | 22% | 100% | 62% | 56% | 100% | 70% | 54% | 72% | 24% | 49% | 81% | 86% | 100% | 69% | 80% | % inhibition ATP binding (CDK9; CDK9, KINOMEscan, 1 μM): 44%; % binding compared to no inhibitor control (IRAK1): 8%; % binding compared to no inhibitor control (IRAK3): 16%; % binding compared to no inhibitor control [1]: 71%; % binding compared to no inhibitor control [2]: 100%; % binding compared to no inhibitor control (MAP3K4): 100%; % binding compared to no inhibitor control (MEK3): 21%; % binding compared to no inhibitor control (MERTK): 78%; % binding compared to no inhibitor control (PIK3CA(E545A)): 90%; % binding compared to no inhibitor control (PIK3CA(Q546K)): 87%; % binding compared to no inhibitor control (PRKD3): 37%; % binding compared to no inhibitor control (RAF1): 81%; % binding compared to no inhibitor control (RIOK1): 31%; % binding compared to no inhibitor control (SNARK): 32%; % binding compared to no inhibitor control (STK39): 46%; % binding compared to no inhibitor control (TGFBR1): 99%; % binding compared to no inhibitor control [3]: 99%; % binding compared to no inhibitor control (ULK2): 69%; % binding compared to no inhibitor control (ULK3): 51% |
| COc1ccccc1Nc1nc(-c2ccc(OC)c(OC)c2)cc2nccn12 [BAY derivative 6] | 100% | 100% | 100% | 87% | 93% | 53% | 100% | 100% | 100% | 90% | 86% | 100% | 100% | 100% | 75% | 81% | 97% | 100% | 95% | 54% | % binding compared to no inhibitor control (IRAK1): 92%; % binding compared to no inhibitor control (IRAK3): 57%; % binding compared to no inhibitor control [1]: 48%; % binding compared to no inhibitor control [2]: 100%; % binding compared to no inhibitor control (MAP3K4): 99%; % binding compared to no inhibitor control (MEK3): 94%; % binding compared to no inhibitor control (MERTK): 100%; % binding compared to no inhibitor control (PIK3CA(E545A)): 100%; % binding compared to no inhibitor control (PIK3CA(Q546K)): 100%; % binding compared to no inhibitor control (PRKD3): 100%; % binding compared to no inhibitor control (RAF1): 100%; % binding compared to no inhibitor control (RIOK1): 95%; % binding compared to no inhibitor control (SNARK): 89%; % binding compared to no inhibitor control (STK39): 97%; % binding compared to no inhibitor control (TGFBR1): 99%; % binding compared to no inhibitor control [3]: 25%; % binding compared to no inhibitor control (ULK2): 86%; % binding compared to no inhibitor control (ULK3): 100% |
